In assay [1] the target is chloride channel (human erythrocyte chloride conductance). In words: In vitro human erythrocyte chloride conductance. Type of assay: cell-based. Conditions: suspensions of human erythrocytes; calculated from dose-response of membrane Cl-conductance (GCl); read-out: KD-value, chloride conductance block. The text has this:
In this example the chloride channel blocking activity of an acetamide derivative representative of the invention, i.e. Compound 3 (2-(4-Chloro-phenyl)-N-[4′-chloro-3-(1H-tetrazol-5-yl)-biphenyl-4-yl]-acetamide), has been determined.
All dose-response experiments were therefore performed by concomitant measurements of conductive netfluxes of Cl^− (JCl) and membrane potentials (Vm) in suspensions of erythrocytes as described by Bennekou et al. (Bennekou P and Christophersen P: Flux ratio of Valinomycin—Mediated K^+Fluxes across the Human Red Cell Membrane in the presence of the Protronophore CCCP; J. Membrane Biol. 1986 93 221-227).
The membrane Cl-conductances (GCl) were calculated according to Hodgkin et al. (Hodgkin A L and Huxley A F: The components of membrane conductance in the giant axon of Loligo; J. Physiol. Lond. 1952 116 449-472) using the following equation: […]
where F is the Faraday constant and ECl is the Nernst potential for the Cl-ion.

For assay [2], the target named is T1, BK channels heterologously expressed in Xenopus laevis oocytes (Homo sapiens, UniProt Q12791).
T1 construct: expressed in transfected cells; host or cells: Xenopus laevis oocytes
T1 sequence (Q12791 whole entry): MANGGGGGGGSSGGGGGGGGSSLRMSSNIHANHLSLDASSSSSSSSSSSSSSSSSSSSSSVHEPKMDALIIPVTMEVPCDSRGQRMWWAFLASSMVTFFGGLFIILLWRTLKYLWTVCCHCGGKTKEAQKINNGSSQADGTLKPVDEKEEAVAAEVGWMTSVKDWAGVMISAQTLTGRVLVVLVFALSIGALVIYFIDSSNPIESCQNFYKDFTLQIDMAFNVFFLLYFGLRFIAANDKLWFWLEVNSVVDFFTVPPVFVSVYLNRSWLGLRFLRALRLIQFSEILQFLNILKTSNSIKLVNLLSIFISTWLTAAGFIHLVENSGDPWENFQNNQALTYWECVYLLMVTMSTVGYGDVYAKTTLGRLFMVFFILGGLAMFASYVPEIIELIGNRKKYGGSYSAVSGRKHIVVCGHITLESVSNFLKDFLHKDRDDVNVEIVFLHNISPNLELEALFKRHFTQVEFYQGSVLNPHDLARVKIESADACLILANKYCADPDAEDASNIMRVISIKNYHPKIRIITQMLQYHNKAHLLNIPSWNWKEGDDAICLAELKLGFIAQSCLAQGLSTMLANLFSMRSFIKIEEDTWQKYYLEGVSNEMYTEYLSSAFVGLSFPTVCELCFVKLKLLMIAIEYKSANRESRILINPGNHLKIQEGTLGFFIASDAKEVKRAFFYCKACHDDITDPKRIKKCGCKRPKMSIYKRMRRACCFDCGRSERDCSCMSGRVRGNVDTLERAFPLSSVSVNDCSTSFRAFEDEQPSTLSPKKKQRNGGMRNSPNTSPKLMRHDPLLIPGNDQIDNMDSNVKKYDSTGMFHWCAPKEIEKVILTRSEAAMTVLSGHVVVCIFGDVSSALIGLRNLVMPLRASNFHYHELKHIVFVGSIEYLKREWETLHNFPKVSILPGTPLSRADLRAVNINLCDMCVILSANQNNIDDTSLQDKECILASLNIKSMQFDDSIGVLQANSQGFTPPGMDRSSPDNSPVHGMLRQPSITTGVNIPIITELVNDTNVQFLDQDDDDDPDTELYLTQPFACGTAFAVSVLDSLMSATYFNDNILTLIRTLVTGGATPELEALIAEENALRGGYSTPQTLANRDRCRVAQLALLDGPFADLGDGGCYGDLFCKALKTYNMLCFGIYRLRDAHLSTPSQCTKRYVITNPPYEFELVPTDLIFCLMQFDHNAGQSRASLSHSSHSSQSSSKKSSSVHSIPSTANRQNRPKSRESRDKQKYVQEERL
The experiment in a line: BK channel activation, two-electrode voltage clamp in Xenopus laevis oocytes. Type of assay: cell-based. Conditions: depolarising step to +20 mV. How it is done: In this example the BK channel opening activity of two acetamide derivatives of to the invention, i.e. 2-(3,5-difluoro-phenyl)-N-[3-(5-oxo-4,5-dihydro-[1,2,4]oxadiazol-3-yl)-4′-trifluoromethyl-biphenyl-4-yl]-acetamide (Compound 7), and 2-(3,5-bis-trifluoromethyl-phenyl)-N-[4-bromo-2-(1H-tetrazol-5-yl)-phenyl]-acetamide (Compound 2) herein designated Compound A and Compound B, respectively, is determined using BK channels heterologously expressed in Xenopus laevis oocytes.
The electrical current through the BK channel is measured by conventional two-electrode voltage clamp. BK current is activated by repeated step protocols. In brief, this protocol goes from a resting membrane potential of −40 mV lasting for 5 s to a depolarised step to +20 mV lasting for 1 s. The protocol was repeated continuously.
Having reached a stable current level, Compound A (3 μM) and Compound B (10 μM), respectively, was added. A marked increase in the current activated by depolarisation could be observed. The BK current activity returned to baseline after approximately 30-80 seconds of wash. In summary BK current was increased by 367±92% in the presence of 3 μM of Compound A (n=3, SD value), and 327±88% in the presence of 10 μM of Compound B.
For orientation: In two-electrode clamp one electrode senses voltage and the other passes current.

For `O=C(Cc1ccc(Cl)cc1)Nc1ccc(-c2ccc(Cl)cc2)cc1-c1nnn[nH]1` [Compound 3, 2-(4-Chloro-phenyl)-N-[4′-chloro-3-(1H-tetrazol-5-yl)-biphenyl-4-yl]-acetamide], the equilibrium dissociation constant (Kd) in assay [1] was 90 nM.

Molecule `O=C(Cc1cc(F)cc(F)c1)Nc1ccc(-c2ccc(C(F)(F)F)cc2)cc1-c1noc(=O)[nH]1` [Compound A, 2-(3,5-difluoro-phenyl)-N-[3-(5-oxo-4,5-dihydro-[1,2,4]oxadiazol-3-yl)-4′-trifluoromethyl-biphenyl-4-yl]-acetamide] showed a BK current increase in assay [2] (3 μM compound, n=3, SD value) of 367±92%.

In the case of `O=C(Cc1cc(C(F)(F)F)cc(C(F)(F)F)c1)Nc1ccc(Br)cc1-c1nnn[nH]1` [Compound B, 2-(3,5-Bis-trifluoromethyl-phenyl)-N-[4-bromo-2-(1H-tetrazol-5-yl)-phenyl]-acetamide], the BK current increase in assay [2] (10 μM compound) amounted to 327±88%.

As a reminder, the Kd is the free concentration of one partner at which half of the binding sites on the other are occupied at equilibrium, for simple one-to-one binding.

The values above are taken from US20100137381A1, “ACETAMIDE DERIVATIVES AS POTASSIUM CHANNEL MODULATORS” (NeuroSearch A/S, priority 2007, published 2010).
